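Dose response: 5 concentrations. Exposure: 48 h. Format: 96-well plates. Endpoint: linear interpolation; highest concentration if not reached. Abbreviation: GI50, concentration required for 50% inhibition of growth. At the TGI there is no net growth.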
Experiments:
Experiment in all cases: NCI tumour cell line growth inhibition, 48 h
786-0 renal = test system: 786-0 renal
A498 renal = test system: A498 renal
A549 NSCLC = test system: A549 NSCLC
ACHN renal = test system: ACHN renal
BT-549 breast = test system: BT-549 breast
CAKI-1 renal = test system: CAKI-1 renal
CCRF-CEM leukemia = test system: CCRF-CEM leukemia
COLO 205 colon = test system: COLO 205 colon
DU-145 prostate = test system: DU-145 prostate
EKVX NSCLC = test system: EKVX NSCLC
HCC-2998 colon = test system: HCC-2998 colon
HCT-116 colon = test system: HCT-116 colon
HCT-15 colon = test system: HCT-15 colon
HL-60(TB) leukemia = test system: HL-60(TB) leukemia
HOP-62 NSCLC = test system: HOP-62 NSCLC
HOP-92 NSCLC = test system: HOP-92 NSCLC
HS 578T breast = test system: HS 578T breast
HT29 colon = test system: HT29 colon
IGROV1 ovarian = test system: IGROV1 ovarian
K-562 leukemia = test system: K-562 leukemia
LOX IMVI melanoma = test system: LOX IMVI melanoma
M14 melanoma = test system: M14 melanoma
MCF7 breast = test system: MCF7 breast
MDA-MB-231 breast = test system: MDA-MB-231 breast
MDA-MB-435 = test system: MDA-MB-435
MOLT-4 leukemia = test system: MOLT-4 leukemia
NCI-H226 lung = test system: NCI-H226 lung
NCI-H23 lung = test system: NCI-H23 lung
NCI-H460 lung = test system: NCI-H460 lung
NCI-H522 lung = test system: NCI-H522 lung
NCI/ADR-RES ovarian = test system: NCI/ADR-RES ovarian
OVCAR-3 ovarian = test system: OVCAR-3 ovarian
OVCAR-4 ovarian = test system: OVCAR-4 ovarian
OVCAR-5 ovarian = test system: OVCAR-5 ovarian
PC-3 prostate = test system: PC-3 prostate
RPMI-8226 leukemia = test system: RPMI-8226 leukemia
RXF 393 renal = test system: RXF 393 renal
SF-268 CNS = test system: SF-268 CNS
SF-295 CNS = test system: SF-295 CNS
SF-539 CNS = test system: SF-539 CNS
SK-MEL-2 melanoma = test system: SK-MEL-2 melanoma
SK-MEL-28 melanoma = test system: SK-MEL-28 melanoma
SK-MEL-5 melanoma = test system: SK-MEL-5 melanoma
SK-OV-3 ovarian = test system: SK-OV-3 ovarian
SN12C renal = test system: SN12C renal
SNB-19 CNS = test system: SNB-19 CNS
SNB-75 CNS = test system: SNB-75 CNS
SR leukemia = test system: SR leukemia
SW-620 colon = test system: SW-620 colon
T-47D breast = test system: T-47D breast
TK-10 renal = test system: TK-10 renal
U251 CNS = test system: U251 CNS
UACC-62 melanoma = test system: UACC-62 melanoma
UO-31 renal = test system: UO-31 renal

Clc1nc(Cl)c2ncn(CC#CCn3cnc4c(Cl)nc(Cl)nc43)c2n1
GI50 (786-0 renal): 3.46 µM
TGI (786-0 renal): 11.4 µM
GI50 (A498 renal): 10.6 µM
TGI (A498 renal): 23 µM
GI50 (A549 NSCLC): 2.49 µM
TGI (A549 NSCLC): 9.32 µM
GI50 (ACHN renal): 1.9 µM
TGI (ACHN renal): 3.32 µM
GI50 (BT-549 breast): 3.3 µM
TGI (BT-549 breast): 11.3 µM
GI50 (CAKI-1 renal): 2.05 µM
TGI (CAKI-1 renal): 3.91 µM
GI50 (CCRF-CEM leukemia): 1.9 µM
TGI (CCRF-CEM leukemia): 3.89 µM
GI50 (COLO 205 colon): 1.7 µM
TGI (COLO 205 colon): 3.36 µM
GI50 (DU-145 prostate): 1.78 µM
TGI (DU-145 prostate): 3.23 µM
GI50 (EKVX NSCLC): 2.6 µM
TGI (EKVX NSCLC): 6.2 µM
GI50 (HCC-2998 colon): 2.08 µM
TGI (HCC-2998 colon): 4.05 µM
GI50 (HCT-116 colon): 1.78 µM
TGI (HCT-116 colon): 3.42 µM
GI50 (HCT-15 colon): 1.99 µM
TGI (HCT-15 colon): 4.06 µM
GI50 (HL-60(TB) leukemia): 2.41 µM
TGI (HL-60(TB) leukemia): > 100 µM
GI50 (HOP-62 NSCLC): 1.9 µM
TGI (HOP-62 NSCLC): 3.89 µM
GI50 (HOP-92 NSCLC): 2.21 µM
TGI (HOP-92 NSCLC): 4.02 µM
GI50 (HS 578T breast): 2.49 µM
TGI (HS 578T breast): 6.79 µM
GI50 (HT29 colon): 1.89 µM
TGI (HT29 colon): 3.69 µM
GI50 (IGROV1 ovarian): 1.54 µM
TGI (IGROV1 ovarian): 3.37 µM
GI50 (K-562 leukemia): 2.39 µM
TGI (K-562 leukemia): 6.24 µM
GI50 (LOX IMVI melanoma): 1.86 µM
TGI (LOX IMVI melanoma): 3.41 µM
GI50 (M14 melanoma): 2.6 µM
TGI (M14 melanoma): 5.62 µM
GI50 (MCF7 breast): 2.18 µM
TGI (MCF7 breast): 5.96 µM
GI50 (MDA-MB-231 breast): 2.42 µM
TGI (MDA-MB-231 breast): 4.93 µM
GI50 (MDA-MB-435): 3.25 µM
TGI (MDA-MB-435): 8.56 µM
GI50 (MOLT-4 leukemia): 0.554 µM
TGI (MOLT-4 leukemia): 2.48 µM
GI50 (NCI-H226 lung): 3.18 µM
TGI (NCI-H226 lung): 7.94 µM
GI50 (NCI-H23 lung): 3.05 µM
TGI (NCI-H23 lung): 8.52 µM
GI50 (NCI-H460 lung): 3.41 µM
TGI (NCI-H460 lung): 12.4 µM
GI50 (NCI-H522 lung): 1.56 µM
TGI (NCI-H522 lung): 3.51 µM
GI50 (NCI/ADR-RES ovarian): 3.73 µM
TGI (NCI/ADR-RES ovarian): 24.1 µM
GI50 (OVCAR-3 ovarian): 2.06 µM
TGI (OVCAR-3 ovarian): 3.71 µM
GI50 (OVCAR-4 ovarian): 1.89 µM
TGI (OVCAR-4 ovarian): 3.36 µM
GI50 (OVCAR-5 ovarian): 10.5 µM
TGI (OVCAR-5 ovarian): 25.6 µM
GI50 (PC-3 prostate): 3.61 µM
TGI (PC-3 prostate): 11.1 µM
GI50 (RPMI-8226 leukemia): 2.09 µM
TGI (RPMI-8226 leukemia): 5.07 µM
GI50 (RXF 393 renal): 1.35 µM
TGI (RXF 393 renal): 2.98 µM
GI50 (SF-268 CNS): 1.89 µM
TGI (SF-268 CNS): 3.76 µM
GI50 (SF-295 CNS): 6.69 µM
TGI (SF-295 CNS): 20.4 µM
GI50 (SF-539 CNS): 2.56 µM
TGI (SF-539 CNS): 6.86 µM
GI50 (SK-MEL-2 melanoma): 2.53 µM
TGI (SK-MEL-2 melanoma): 5.55 µM
GI50 (SK-MEL-28 melanoma): 1.82 µM
TGI (SK-MEL-28 melanoma): 3.39 µM
GI50 (SK-MEL-5 melanoma): 11.1 µM
TGI (SK-MEL-5 melanoma): 23.3 µM
GI50 (SK-OV-3 ovarian): 10.5 µM
TGI (SK-OV-3 ovarian): 22.5 µM
GI50 (SN12C renal): 2.66 µM
TGI (SN12C renal): 6.5 µM
GI50 (SNB-19 CNS): 2.01 µM
TGI (SNB-19 CNS): 4.25 µM
GI50 (SNB-75 CNS): 2.87 µM
TGI (SNB-75 CNS): 7.76 µM
GI50 (SR leukemia): 0.38 µM
TGI (SR leukemia): 2.19 µM
GI50 (SW-620 colon): 1.84 µM
TGI (SW-620 colon): 3.46 µM
GI50 (T-47D breast): 1.85 µM
TGI (T-47D breast): 4.13 µM
GI50 (TK-10 renal): 5.51 µM
TGI (TK-10 renal): 17.8 µM
GI50 (U251 CNS): 2.28 µM
TGI (U251 CNS): 4.75 µM
GI50 (UACC-62 melanoma): 1.96 µM
TGI (UACC-62 melanoma): 3.66 µM
GI50 (UO-31 renal): 1.67 µM
TGI (UO-31 renal): 3.31 µM
